These results are taken from PMC3608651, “A Broad Profile of Co-Dominant Epitopes Shapes the Peripheral Mycobacterium tuberculosis Specific CD8+ T-Cell Immune Response in South African Patients with Active Tuberculosis” (PLoS ONE, 2013).

Read-outs that look alike come from different tables or passages of the source.

Type in all cases: binding
One test addresses HLA-B*58:01 (Homo sapiens, UniProt P01889, A329T/C349S/D201E/D98Y/E176V/E187L/E204Q/E69T/G107R/I218V/I90N/K202T/L105A/L119I/N104I/N87E/Q89R/Q94S/R106L/R155S/R180L/R86G/S101N/S121R/S35A/S48A/T118I/V127L/V306I/V36M/Y140S/Y91M). The following applies: duplicated experiments, positive binder >40%.
The target of a further test is HLA-C*07:01 (Homo sapiens, UniProt P10321, K90N/S123Y). The following applies: duplicated experiments, positive binder >40%.
A further test has as its target HLA-A*24:02 (Homo sapiens, UniProt P04439, D101N/D140Y/D185E/E176V/E190D/F33S/G103R/G107R/I119L/I121M/I306V/K335N/L105A/L180Q/L300P/N151K/N90K/Q86E/Q94H/R106L/R138H/R89G/T104I/T345S/V100E/W191G/Y123F). The following applies: duplicated experiments, positive binder >40%.
The next test addresses HLA-B*07:02 (Homo sapiens, UniProt P01889). The following applies: percent relative the binding of positive control peptide […]; duplicated experiments; positive binder >40%.
Test [1] addresses T1, HLA-A*30:02 (Homo sapiens, UniProt P04439, D101N/D140H/D185E/E176R/F33S/G80R/H175R/K168Q/Q94H/R138E/R41S/V100E).
Another test addresses HLA-A*02:01 (Homo sapiens, UniProt P04439, D140Y/D185E/D98H/E176V/E277Q/G131W/G231S/I119V/I121R/I166T/I218V/L300P/L318F/N151K/N90K/P208A/P217A/Q86G/Q94H/R138H/R169H/T345S). The following applies: plate-bound monomer 0.5 µg/ml, duplicated experiments, positive binder >40%.
Another test addresses HLA-A*30:01 (Homo sapiens, UniProt P04439, D140H/D185E/E176W/F33S/G80R/H175R/K168Q/R138E/R41S). The following applies: duplicated experiments, positive binder >40%.
Test [2] deals with T1, HLA-A*30:02. The following applies: duplicated experiments, positive binder >40%.
Test [3] concerns the target T1, HLA-A*30:02. The following applies: time points 0-8 h.
For the next test, the target named is HLA-A*68:01 (Homo sapiens, UniProt P04439, A269V/D185E/E176V/E277Q/E87N/F33Y/G231S/I121M/I166T/I218V/L180W/L300P/L318F/N151K/P208A/P217A/Q86R/R169H/T345S). The following applies: duplicated experiments, positive binder >40%.
The mark [4] stands for this setting: percent relative the binding of positive control peptide […].
The mark [5] stands for this setting: percent relative the binding of positive control peptide IAMESIVIW
The mark [6] stands for this setting: percent relative the binding of positive control peptide KYFDEHYEY
The mark [7] stands for this setting: percent relative the binding of positive control peptide RYLKDQQLL
The mark [8] stands for this setting: peptide titrated 10−4 to 10−9 M.
[9] abbreviates: percent relative the binding of positive control peptide FLPSDFFPSV
Where [10] appears, read: percent relative the binding of positive control peptide KTKDIVNGL
Setting [11] is: percent relative the binding of positive control peptide KIQNFRVYY
The mark [12] stands for this setting: percent relative the binding of positive control peptide KTGGPIYKR

With IYAGSLSAL, the “Bind B*58:01” value on HLA-B*58:01 (setting [4]) came out at 16%. Besides, the “Bind C*07:01” value on HLA-C*07:01 (setting [4]) is 0%. Moreover, the “Bind A*24:02” value at HLA-A*24:02 (setting [4]) worked out at 107%. The “Bind B*07:02” value at HLA-B*07:02 is 83%. Further, the “Aff A*30:02 (ED50)” value at HLA-A*30:02 [1] is given as 4E -06 M. The “Bind A*02:01” value at HLA-A*02:01 (setting [4]) amounted to 44%. Besides, at HLA-A*30:01 (setting [4]), the “Bind A*30:01” value is reported as 0%. The “Bind A*30:02” value on HLA-A*30:02 [2] (setting [4]) worked out at 116%. For the same sequence, the “O-rate A*30:02 (t1/2)” value at HLA-A*30:02 [3] came to 0.5 h. For the same sequence, the “Bind A*68:01” value on HLA-A*68:01 (setting [4]) was 4%.
Consider AAAWGGSGS [Rv3875_40-48], for which the “Bind B*58:01” value at HLA-B*58:01 (setting [5]) was determined as 8%. On HLA-C*07:01 (setting [6]), the “Bind C*07:01” value is on record as 29%. On HLA-A*24:02 (setting [7]), the “Bind A*24:02” value is reported as 0%. Moreover, the “Bind B*07:02” value at HLA-B*07:02 came to 4%. For the same sequence, the “Aff A*30:02 (ED50)” value on HLA-A*30:02 [1] (setting [8]) came to 5e-09 M. The “Bind A*02:01” value at HLA-A*02:01 (setting [9]) is 8%. The “Bind A*30:01” value on HLA-A*30:01 (setting [10]) was 29%. On HLA-A*30:02 [2] (setting [11]), the “Bind A*30:02” value stood at 129%. Also, on HLA-A*30:02 [3], the “O-rate A*30:02 (t1/2)” value came to 1.1 h. Further, on HLA-A*68:01 (setting [12]), the “Bind A*68:01” value was 15%.
Turning to MTEQQWNFA [Rv3875_1–9], the “Bind B*58:01” value on HLA-B*58:01 (setting [5]) is 2%. Further, the “Bind C*07:01” value at HLA-C*07:01 (setting [6]) is 0%. Besides, at HLA-A*24:02 (setting [7]), the “Bind A*24:02” value was 0%. The “Bind B*07:02” value on HLA-B*07:02 worked out at 2%. Further, the “Aff A*30:02 (ED50)” value on HLA-A*30:02 [1] (setting [8]) turned out to be 2e-08 M. Also, the “Bind A*02:01” value on HLA-A*02:01 (setting [9]) is reported as 13%. Also, at HLA-A*30:01 (setting [10]), the “Bind A*30:01” value turned out to be 0%. The “Bind A*30:02” value on HLA-A*30:02 [2] (setting [11]) is given as 52%. In addition, at HLA-A*30:02 [3], the “O-rate A*30:02 (t1/2)” value was determined as 1.4 h. The “Bind A*68:01” value on HLA-A*68:01 (setting [12]) is recorded as 25%.
With GVQQKWDAT [Rv3875_53–61], the “Bind B*58:01” value at HLA-B*58:01 (setting [5]) came out at 6%. For the same sequence, on HLA-C*07:01 (setting [6]), the “Bind C*07:01” value was 9%. Besides, on HLA-A*24:02 (setting [7]), the “Bind A*24:02” value came to 0%. Further, at HLA-B*07:02, the “Bind B*07:02” value came out at 10%. Besides, the “Aff A*30:02 (ED50)” value at HLA-A*30:02 [1] (setting [8]) stood at 3e-08 M. Besides, the “Bind A*02:01” value at HLA-A*02:01 (setting [9]) stood at 0%. Besides, the “Bind A*30:01” value on HLA-A*30:01 (setting [10]) came to 9%. In addition, the “Bind A*30:02” value on HLA-A*30:02 [2] (setting [11]) was found to be 78%. Moreover, at HLA-A*30:02 [3], the “O-rate A*30:02 (t1/2)” value is 1.3 h. Further, the “Bind A*68:01” value at HLA-A*68:01 (setting [12]) stood at 0%.
Take AWGGSGSEA [Rv3875_42–50]: the “Bind B*58:01” value on HLA-B*58:01 (setting [5]) came out at 6%. On HLA-C*07:01 (setting [6]), the “Bind C*07:01” value is reported as 29%. The “Bind A*24:02” value on HLA-A*24:02 (setting [7]) was 4%. In addition, the “Bind B*07:02” value on HLA-B*07:02 is 6%. Also, the “Aff A*30:02 (ED50)” value on HLA-A*30:02 [1] (setting [8]) was determined as 8e-07 M. In addition, at HLA-A*02:01 (setting [9]), the “Bind A*02:01” value is 4%. Besides, at HLA-A*30:01 (setting [10]), the “Bind A*30:01” value is 16%. In addition, on HLA-A*30:02 [2] (setting [11]), the “Bind A*30:02” value came out at 90%. Also, at HLA-A*30:02 [3], the “O-rate A*30:02 (t1/2)” value turned out to be 1.7 h. Besides, the “Bind A*68:01” value at HLA-A*68:01 (setting [12]) is 11%.
On to RSSNLKFQD, for which the “Bind B*58:01” value at HLA-B*58:01 (setting [4]) stood at 14%. At HLA-C*07:01 (setting [4]), the “Bind C*07:01” value worked out at 64%. In addition, the “Bind A*24:02” value at HLA-A*24:02 (setting [4]) was 26%. Further, the “Bind B*07:02” value on HLA-B*07:02 was 3%. Also, the “Aff A*30:02 (ED50)” value on HLA-A*30:02 [1] worked out at 1E -05 M. In addition, on HLA-A*02:01 (setting [4]), the “Bind A*02:01” value came out at 11%. In addition, the “Bind A*30:01” value on HLA-A*30:01 (setting [4]) turned out to be 0%. Moreover, at HLA-A*30:02 [2] (setting [4]), the “Bind A*30:02” value is reported as 104%. Moreover, at HLA-A*30:02 [3], the “O-rate A*30:02 (t1/2)” value came to 1.6 h. For the same sequence, the “Bind A*68:01” value on HLA-A*68:01 (setting [4]) is on record as 11%.
As for KFQDAYNAA, at HLA-B*58:01 (setting [4]), the “Bind B*58:01” value was found to be 0%. The “Bind C*07:01” value at HLA-C*07:01 (setting [4]) came out at 0%. In addition, the “Bind A*24:02” value on HLA-A*24:02 (setting [4]) came to 0%. The “Bind B*07:02” value on HLA-B*07:02 is 0%. Moreover, the “Aff A*30:02 (ED50)” value at HLA-A*30:02 [1] stood at 8e-06 M. Moreover, the “Bind A*02:01” value at HLA-A*02:01 (setting [4]) turned out to be 19%. Also, on HLA-A*30:01 (setting [4]), the “Bind A*30:01” value amounted to 0%. The “Bind A*30:02” value at HLA-A*30:02 [2] (setting [4]) is 113%. Further, the “O-rate A*30:02 (t1/2)” value on HLA-A*30:02 [3] was 0.7 h. For the same sequence, the “Bind A*68:01” value at HLA-A*68:01 (setting [4]) was determined as 0%.
With MKGDLQSSL, the “Bind B*58:01” value on HLA-B*58:01 (setting [4]) was 0%. Further, the “Bind C*07:01” value at HLA-C*07:01 (setting [4]) is 63%. In addition, the “Bind A*24:02” value on HLA-A*24:02 (setting [4]) is on record as 22%. Moreover, the “Bind B*07:02” value on HLA-B*07:02 worked out at 17%. Moreover, the “Aff A*30:02 (ED50)” value on HLA-A*30:02 [1] turned out to be 2e-05 M. Besides, at HLA-A*02:01 (setting [4]), the “Bind A*02:01” value came out at 16%. The “Bind A*30:01” value on HLA-A*30:01 (setting [4]) came out at 14%. The “Bind A*30:02” value on HLA-A*30:02 [2] (setting [4]) turned out to be 90%. Moreover, at HLA-A*30:02 [3], the “O-rate A*30:02 (t1/2)” value amounted to 2.8 h. The “Bind A*68:01” value at HLA-A*68:01 (setting [4]) is reported as 19%.
